This test deals with T1, 5HT6 human recombinant receptor (Homo sapiens, UniProt P50406).
T1 construct: purchased Receptor Biology; host or cells: HEK-293 cell membranes
As to the kind of experiment: Binding with serotonin receptor 5HT6 ([3H]-LSD radioligand, HEK-293 cell membranes). The conditions noted are these: [3H]-LSD 2.7 nM, HEK-293 membranes; for inhibition at 0.01 µM: 10 nM compound; for inhibition at 0.01 µM / inhibition at 0.1 µM: 60 min, 37° C.; for inhibition at 0.1 µM: 100 nM compound; for Ki: non-linear regression EBDA/LIGAND. As to the method:
Biological Assays Binding with Serotonin Receptor 5HT6
Cell membranes of HEK-293 cells expressing the 5HT6 human recombinant receptor were supplied by Receptor Biology. In said membranes the receptor concentration is 2.18 pmol/mg protein and the protein concentration is 9.17 mg/ml. The experimental protocol follows the method of B. L. Roth et al. [B. L. Roth, S. C. Craigo, M. S. Choudhary, A. Uluer, F. J. Monsma, Y. Shen, H. Y. Meltzer, D. R. Sibley: Binding of Typical and Atypical Antipsychotic Agents to 5-Hydroxytryptamine-6 and Hydroxytriptamine-7 Receptors. The Journal of Pharmacology and Experimental Therapeutics, 1994, 268, 1403] with slight changes. The commercial membrane is diluted (1:40 dilution) with the binding buffer: 50 mM Tris-HCl, 10 mM MgCl2, 0.5 mM EDTA (pH 7.4). The radioligand used is [^3H]-LSD at a concentration of 2.7 nM with a final volume of 200 μl. incubation is initiated by adding 100 μl of membrane suspension, (≈22.9 μg membrane protein), and is prolonged for 60 minutes at a temperature of 37° C. The incubation is ended by fast filtration in a Brandel Cell Harvester through fiber glass filters made by Schleicher & Schuell GF 3362 pretreated with a solution of polyethylenimine at 0.5%. The filters are washed three times with three milliliters of buffer Tris-HCl 50 mM pH 7.4. The filters are transferred to flasks and 5 ml of Ecoscint H liquid scintillation cocktail are added to each flask. The flasks are allowed to reach equilibrium for several hours before counting with a Wallac Winspectral 1414 scintillation counter. Non-specific binding is determined in the presence of 100 μM of serotonin. Tests were made in triplicate. The inhibition constants (Ki, nM) were calculated by non-linear regression analysis using the program EBDA/LIGAND [Munson and Rodbard, Analytical Biochemistry, 1980, 107, 220].

“And” between values parts separate entries of the source, which are not always exact repeats. Equal values may be shown once.

T1 sequence (P50406 whole entry): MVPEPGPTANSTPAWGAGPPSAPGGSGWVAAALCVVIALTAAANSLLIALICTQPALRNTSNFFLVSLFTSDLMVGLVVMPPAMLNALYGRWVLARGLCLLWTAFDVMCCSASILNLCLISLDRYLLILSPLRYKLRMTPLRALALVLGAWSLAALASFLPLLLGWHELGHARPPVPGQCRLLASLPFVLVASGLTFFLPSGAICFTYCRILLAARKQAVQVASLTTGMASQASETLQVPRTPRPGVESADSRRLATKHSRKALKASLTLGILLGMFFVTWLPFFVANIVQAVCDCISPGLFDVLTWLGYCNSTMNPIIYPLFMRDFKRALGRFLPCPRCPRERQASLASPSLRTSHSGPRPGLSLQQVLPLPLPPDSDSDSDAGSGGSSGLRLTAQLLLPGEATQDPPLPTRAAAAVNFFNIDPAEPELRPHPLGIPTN

For the molecule `CCNCCc1c[nH]c2ccc(NS(=O)(=O)c3sc4ccc(Cl)cc4c3C)cc12` [Example 1, 5-Chloro-3-methyl-benzo[b]thiophene-2-sulfonic acid [3-(2-ethylamino-ethyl)-1H-indol-5-yl]-amide], the inhibition at 0.01 µM came out at 82.7%, the inhibition at 0.1 µM came out at 91.4% and the Ki was 0.67 nM.

With `CNCCc1c[nH]c2ccc(NS(=O)(=O)c3sc4ccc(Cl)cc4c3C)cc12` [Example 2, 5-Chloro-3-methyl-benzo[b]thiophene-2-sulfonic acid [3-(2-methylamino-ethyl)-1H-indol-5-yl]-amide], the inhibition at 0.01 µM was 62.5%, the inhibition at 0.1 µM was determined as 80.3% and the Ki was found to be 2 nM.

`CNCCc1c[nH]c2ccc(NS(=O)(=O)c3c(Cl)nc4sccn34)cc12` [Example 3, 6-Chloro-imidazo[2,1-b]thiazole-5-sulfonic acid [3-(2-methylamino-ethyl)-1H-indol-5-yl]-amide]: the inhibition at 0.01 µM is 47.3%; the inhibition at 0.1 µM is 71.8%; the Ki is 4.7 nM and 3.2 nM.

With `CCNCCc1c[nH]c2ccc(NS(=O)(=O)c3c(Cl)nc4sccn34)cc12` [Example 4, 6-Chloro-imidazo[2,1-b]thiazole-5-sulfonic acid [3-(2-ethylamino-ethyl)-1H-indol-5-yl]-amide], the inhibition at 0.01 µM turned out to be 61.8%, the inhibition at 0.1 µM came out at 81.7% and the Ki stood at 6.4 ± 1 nM.

Turning to `Cc1c(S(=O)(=O)Nc2ccc3[nH]cc(CCN)c3c2)sc2ccc(Cl)cc12` [Example 5, 5-Chloro-3-methyl-benzo[b]thiophene-2-sulfonic acid [3-(2-amino-ethyl)-1H-indol-5-yl]-amide], the inhibition at 0.01 µM is 63.5%, the inhibition at 0.1 µM was 85% and the Ki was found to be 11.7 nM.

Consider `NCCc1c[nH]c2ccc(NS(=O)(=O)c3c(Cl)nc4sccn34)cc12` [Example 6, 6-Chloro-imidazo[2,1-b]thiazole-5-sulfonic acid [3-(2-amino-ethyl)-1H-indol-5-yl]-amide], for which the inhibition at 0.01 µM stood at 75.7%, the inhibition at 0.1 µM turned out to be 92.3% and the Ki stood at 3.6 ± 1.4 nM.

Usually inhibition stands for the percentage by which the read-out fell short of the control. In general, Ki refers to the dissociation constant of the complex between target and ligand, obtained from inhibition or displacement.

For the origin of these results see patent US7960568B2, “Heterocyclyl-substituted sulfonamides for the treatment of cognitive or food ingestion related disorders” (Laboratorios Del Dr. Esteve, S.A., priority 2007, dated 2011).
